How the values were obtained:
Conditions in all cases: incubation time: 72 h
MDA-MB-453 [1] = assay: normalised response (% of control), CellTiter-Glo; higher = more viable cells (100 = DMSO, 0 = benzethonium chloride kill control)
Description: (§1)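 DSRT, 72 h incubation, CellTox Green / CellTiter-Glo readout. Signal is normalised to DMSO and benzethonium chloride controls. Value is the normalised response at the highest dose.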

SK-BR-3 = assay: as above
Description: as §1

MCF-10A [2] = assay: as above
Description: as §1

MDA-MB-468 [3] = assay: as above
Description: as §1

CAL-148 [4] = assay: as above
Description: as §1

BT-474 [5] = assay: as above
Description: as §1

HCC1599 [6] = assay: as above
Description: as §1

MFM-223 [7] = assay: as above
Description: as §1

CAL-51 [8] = assay: as above
Description: as §1

Hs578T [9] = assay: as above
Description: as §1

CAL-85-1 [10] = assay: as above
Description: as §1

BT-549 [11] = assay: as above
Description: as §1

DU-4475 [12] = assay: as above
Description: as §1

HCC1937 [13] = assay: as above
Description: as §1

HCC1143 [14] = assay: as above
Description: as §1

MDA-MB-436 [15] = assay: as above
Description: as §1

HDQ-P1 [16] = assay: as above
Description: as §1

CAL-120 [17] = assay: as above
Description: as §1

MDA-MB-231 [18] = assay: as above
Description: as §1

MDA-MB-453 [19] = assay: normalised response (% of control), CellTox Green; higher = less cell death (100 = DMSO, 0 = benzethonium chloride kill control)
In short: (§2)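 Plates were normalised with 0.1 % DMSO as 100 and a positive kill control as 0. Breast cancer cell lines in 20 µl suspension had been seeded into 384-well plates with compound at 5 concentrations in 10-fold steps over a compound-specific 10,000-fold range, incubated 72 h, and read for CellTox Green fluorescence (485/520 nm) followed by CellTiter-Glo luminescence. Each value is the normalised signal at a single concentration.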

MCF-10A [20] = assay: as above
In short: as §2

MDA-MB-468 [21] = assay: as above
In short: as §2

CAL-148 [22] = assay: as above
In short: as §2

BT-474 [23] = assay: as above
In short: as §2

HCC1599 [24] = assay: as above
In short: as §2

MFM-223 [25] = assay: as above
In short: as §2

CAL-51 [26] = assay: as above
In short: as §2

Hs578T [27] = assay: as above
In short: as §2

CAL-85-1 [28] = assay: as above
In short: as §2

BT-549 [29] = assay: as above
In short: as §2

DU-4475 [30] = assay: as above
In short: as §2

HCC1937 [31] = assay: as above
In short: as §2

HCC1143 [32] = assay: as above
In short: as §2

MDA-MB-436 [33] = assay: as above
In short: as §2

CAL-120 [34] = assay: as above
In short: as §2

MDA-MB-231 [35] = assay: as above
In short: as §2

HDQ-P1 [36] = assay: as above
In short: as §2

Row | SMILES | normalised response (MDA-MB-453 [1]) [%] | normalised response (SK-BR-3) [%] | normalised response (MCF-10A [2]) [%] | normalised response (MDA-MB-468 [3]) [%] | normalised response (CAL-148 [4]) [%] | normalised response (BT-474 [5]) [%] | normalised response (HCC1599 [6]) [%] | normalised response (MFM-223 [7]) [%] | normalised response (CAL-51 [8]) [%] | normalised response (Hs578T [9]) [%] | normalised response (CAL-85-1 [10]) [%] | normalised response (BT-549 [11]) [%] | normalised response (DU-4475 [12]) [%] | normalised response (HCC1937 [13]) [%] | normalised response (HCC1143 [14]) [%] | normalised response (MDA-MB-436 [15]) [%] | normalised response (HDQ-P1 [16]) [%] | normalised response (CAL-120 [17]) [%] | normalised response (MDA-MB-231 [18]) [%] | normalised response (MDA-MB-453 [19]) [%] | normalised response (MCF-10A [20]) [%] | normalised response (MDA-MB-468 [21]) [%] | normalised response (CAL-148 [22]) [%] | normalised response (BT-474 [23]) [%] | normalised response (HCC1599 [24]) [%] | normalised response (MFM-223 [25]) [%] | normalised response (CAL-51 [26]) [%] | normalised response (Hs578T [27]) [%] | normalised response (CAL-85-1 [28]) [%] | normalised response (BT-549 [29]) [%] | normalised response (DU-4475 [30]) [%] | normalised response (HCC1937 [31]) [%] | normalised response (HCC1143 [32]) [%] | normalised response (MDA-MB-436 [33]) [%] | normalised response (CAL-120 [34]) [%] | normalised response (MDA-MB-231 [35]) [%] | normalised response (HDQ-P1 [36]) [%]
1 | CC(=O)O[C@]1(C(C)=O)CC[C@H]2[C@@H]3C=C(C)C4=CC(=O)CC[C@]4(C)[C@H]3CC[C@@]21C [Megestrol acetate] (10000 nM) | 91.3 | 89 | 135 | 95.9 | 88.7 | 111 | 99.5 | 91.7 | 123 | 94.5 | 97.7 | 107 | 93.9 | 98 | 102 | 96 | 102 | 90 | 124 | 99.8 | 102 | 176 | 99.9 | 99.2 | 95.9 | 103 | 111 | 58.5 | 109 | 105 | 97.6 | 84 | 112 | 88.3 | 96.6 | 123 | –
2 | CCN1CCN(c2ccc(Nc3cc(N(C)C(=O)Nc4c(Cl)c(OC)cc(OC)c4Cl)ncn3)cc2)CC1 [NVP-BGJ398] (1000 nM) | 105 | 97.7 | 101 | 97.2 | 96.5 | 91.3 | 98.7 | 50.3 | 128 | 86.2 | 101 | 75.9 | 100 | 95.7 | 93.6 | 92.7 | 99.8 | 71.1 | 96.2 | 81.6 | 73.2 | 71.5 | 98.1 | 102 | 100 | 94.1 | 105 | 115 | 119 | 84.6 | 97.7 | 52.5 | 105 | 102 | 89.3 | – | 101
3 | O=C(c1ccc(C(=O)N2CCC(N3CCCC3)CC2)c(Nc2ccccc2)c1)N1CCC(N2CCCC2)CC1 [UNC1215] (30000 nM) | 99.8 | 94 | 95.4 | 95 | 93.8 | 101 | 96 | 95.1 | 99.6 | 99.6 | 92.2 | 98 | 94.8 | 94.2 | 96.5 | 93.2 | 97.7 | 107 | 93.9 | 102 | 82.8 | 135 | 101 | 102 | 94.3 | 105 | 106 | 84.2 | 116 | 86.1 | 98.2 | 98.5 | – | 93.4 | 98.6 | 88.8 | 50.2

From the supplement of paper PMC4862054
